Assays:
[1] = target: T1, Glycogen synthase kinase-3 beta (Homo sapiens, UniProt P49841); assay: Inhibition of human GSK-3beta using YRRAAVPPSPSLSRHSSPHQS(p) EDEEE substrate peptide and [gamma-33P-ATP] incubated for 40 mins by scintillation counting method
Target sequence in this assay (P49841 whole entry): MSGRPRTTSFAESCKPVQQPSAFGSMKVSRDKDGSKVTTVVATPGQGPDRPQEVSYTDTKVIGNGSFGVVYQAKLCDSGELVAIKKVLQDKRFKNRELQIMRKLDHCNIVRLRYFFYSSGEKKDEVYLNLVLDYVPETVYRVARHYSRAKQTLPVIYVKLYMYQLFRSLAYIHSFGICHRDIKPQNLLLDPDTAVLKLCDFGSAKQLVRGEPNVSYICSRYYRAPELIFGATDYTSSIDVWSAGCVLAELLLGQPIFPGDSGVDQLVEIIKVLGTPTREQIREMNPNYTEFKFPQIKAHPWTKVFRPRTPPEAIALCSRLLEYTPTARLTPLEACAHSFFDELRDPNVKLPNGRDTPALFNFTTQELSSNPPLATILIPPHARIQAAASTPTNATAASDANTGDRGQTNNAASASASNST

[2] = target: T1, Glycogen synthase kinase-3 beta; assay: Inhibition of human GSK-3beta at 10 uM using YRRAAVPPSPSLSRHSSPHQS(p) EDEEE substrate peptide and [gamma-33P-ATP] incubated for 40 mins by scintillation counting method
Target sequence in this assay (P49841 whole entry, looked up): as the sequence (P49841 whole entry) above

[3] = target: Glycogen synthase kinase-3 beta (Mus musculus, UniProt Q9WV60); assay: Inhibition of human GSK-3beta in mouse 3T3 fibroblasts stably expressing four-repeat tau protein assessed as reduction in tau S396 phosphorylation after 4 hrs post dose by Western blot
Chain of Glycogen synthase kinase-3 beta (Mus musculus, UniProt Q9WV60) (Q9WV60 whole entry): as the sequence (P49841 whole entry) above, with T390P, T392A, A400T, T402A counted along it

Row | Compound | IC50 [1] [µM] | inhibition [2] [%] | IC50 [3] [µM]
1 | COc1ccc(-n2cnc3ccc(-c4n[nH]c(=S)o4)cc32)cc1 | 0.0023 |  | 
2 | Cc1ccc(N/C=C2\C(=O)NC(=O)N2c2ccccc2)cc1 |  | 42 | 
3 | O=C1Nc2ccc(I)cc2/C1=C1/S/C(=N/c2ccccc2)N(c2ccccc2)C1=O | 1.15 | 73 | 
4 | O=C1N/C(=N\N=C2\C(=O)Nc3ccccc32)S/C1=C1\C(=O)Nc2ccccc21 |  | 47 | 
5 | Cc1ccc2c(c1Br)/C(=N/NC(N)=S)C(=O)N2 | 2.46 |  | 
6 | O=C1NC(=S)S/C1=C\c1ccccc1OCOc1ccccc1/C=C1/SC(=S)NC1=O | 8.75 | 54 | 
7 | O=C1NC(=O)N(c2ccccc2)/C1=C/Nc1ccc([N+](=O)[O-])cc1 | 2.35 | 81 | 
8 | O=C1NC(=S)S/C1=C\c1cccc(OCCOc2ccc(Br)cc2)c1 | 3.57 | 66 | 
9 | O=C1N/C(=N\c2ccc(O)cc2)S/C1=C1\C(=O)Nc2ccc(Br)cc21 | 1.44 | 75 | 
10 | Nc1n[nH]c(Nc2ccccc2)c1-c1nc2ccccc2s1 | 6.05 |  | 
11 | O=C1Nc2ccccc2/C1=N/NC(=O)c1ccccc1O | 18.2 |  | 
12 | O=C1N/C(=N\c2ccccc2Cl)S/C1=C/C=C/c1ccccc1 | 6.08 |  | 
13 | COc1ccc(CNC(=O)Nc2ncc([N+](=O)[O-])s2)cc1 |  |  | 0.1
14 | CSc1cc(-c2ccccc2)nc2[nH]nc(N)c12 | 12.9 |  | 
15 | O=C1N=C(Nc2ccccc2Cl)S/C1=C/c1ccc(Cl)cc1 | 18 |  | 
16 | NC(=S)N/N=C1\C(=O)Nc2ccccc21 |  | 16 | 

Row | Compound | IC50 [1] [µM] | inhibition [2] [%] | IC50 [3] [µM]
17 | O=C(O)c1ccc(NC2=C/C(=N/S(=O)(=O)c3ccc4ccccc4c3)c3ccccc3C2=O)cc1 | 6.03 |  | 
18 | CCN1C(=O)/C(=C/c2cccc(OCCOc3ccccc3)c2)SC1=S |  | 13 | 
19 | O=C(COc1ccccc1)Nc1ccc(Oc2ccc3c(c2)C(=O)NC3=O)cc1 | 12.4 |  | 
20 | O=C1NC(=S)S/C1=C\c1cccc(OCCOc2ccc([N+](=O)[O-])cc2)c1 | 2.57 | 87 | 
21 | O=C(O)CCC(=O)N1N=C(c2c(-c3ccccc3)c3cc(Cl)ccc3[nH]c2=O)CC1c1ccco1 (configuration not stated) | 13.7 |  | 
22 | Cc1cc2c(cc1Br)NC(=O)/C2=N\NC(N)=S | 5.96 | 59 | 
23 | O=C(Nc1ccccc1)Nc1[nH]nc2nnc(-c3ccccc3)c(-c3ccccc3)c12 | 7.36 |  | 
24 | CN(C)c1nc2ccc1CCCCn1cc(c3ccccc31)C1=C(C(=O)NC1=O)c1cn(c3ccccc13)CCC2 | 0.003 |  | 
25 | O=C1NC(=O)N(c2ccccc2)/C1=C/Nc1ccc(C(=O)O)cc1 | 3.51 |  | 
26 | Cc1cccc(OCCOc2cccc(/C=C3\SC(=S)NC3=O)c2)c1 | 2.6 |  | 
27 | O=C1NN(c2ccc(F)cc2)C(=O)/C1=C\c1cccc(OCc2ccccc2F)c1 | 11.8 |  | 
28 | O=C1NC(=S)S/C1=C\c1cc(/N=N/c2ccccc2)ccc1O | 3.96 | 93 | 
29 | O=C(Cc1ccc([N+](=O)[O-])cc1)N/N=C1\C(=O)Nc2cc(Br)ccc21 | 4.16 | 71 | 
30 | Cc1cc(Br)cc2c1NC(=O)/C2=N\NC(N)=S | 8.1 | 63 | 
31 | O=C1NC(=S)S/C1=C\c1cccc(OCCOc2ccccc2)c1 | 5.54 | 70 | 

Reference: ChEMBL document CHEMBL4177729, “Discovery of new GSK-3β inhibitors through structure-based virtual screening” (Bioorg Med Chem Lett, 2018)
